This note sets out measurements from ChEMBL document CHEMBL1138173, “Synthesis and biological evaluation of photoaffinity labeled fusidic acid analogues” (2006).

Type in all cases: functional
Test [1] relates to Staphylococcus aureus. Put plainly: Antibacterial activity against Staphylococcus aureus CJ 234 R.
Test [2] relates to Staphylococcus aureus. Put plainly: Antibacterial activity against Staphylococcus aureus CJ 200.
Test [3] relates to Staphylococcus aureus. Put plainly: Antibacterial activity against Staphylococcus aureus CJ 251.
The subject of test [4] is Staphylococcus aureus. Put plainly: Antibacterial activity against Staphylococcus aureus CJ 288.
Test [5] deals with Staphylococcus epidermidis. Nature of the test: Antibacterial activity against Staphylococcus epidermidis CK 5.
The next test concerns Corynebacterium xerosis. Put plainly: Antibacterial activity against Corynebacterium xerosis FF.
The test system of test [6] is Staphylococcus aureus. Nature of the test: Antibacterial activity against Staphylococcus aureus CJ 247.

In brackets after ≈: the same amount, converted by molar mass. Where only a bound is given, the exact number is not on record here.

As a reminder, the MIC is the lowest concentration that inhibits growth of the organism. Lower therefore signals inhibition by little substance. Turning to `CC(=O)O[C@H]1C[C@@]2(C)[C@@H](C[C@@H](O)[C@H]3[C@@]4(C)CC[C@@H](O)[C@@H](C)C4CC[C@@]32C)/C1=C(\CCCCc1ccc(N=[N+]=[N-])cc1)C(=O)O` (stereo partly specified), the MIC against Staphylococcus aureus [1] is 1 µg/mL (≈ 1.65 µM); with Staphylococcus aureus [2] it was 1 µg/mL (≈ 1.65 µM); in the test on Staphylococcus aureus [3] it was 1 µg/mL (≈ 1.65 µM); against Staphylococcus aureus [4], 1 µg/mL (≈ 1.65 µM); in test [5], 4 µg/mL (≈ 6.58 µM); against Corynebacterium xerosis it was 0.016 µg/mL (≈ 0.0263 µM).
Regarding `CC(=O)O[C@H]1C[C@@]2(C)[C@@H](C[C@@H](O)[C@H]3[C@@]4(C)CC[C@@H](O)[C@@H](C)C4CC[C@@]32C)/C1=C(\CCCCc1ccc(C(=O)c2ccccc2)cc1)C(=O)O` (stereo partly specified), the MIC against Staphylococcus aureus [6] was found to be 1 µg/mL (≈ 1.49 µM); with Staphylococcus aureus [1], 1 µg/mL (≈ 1.49 µM); with Staphylococcus aureus [2], 4 µg/mL (≈ 5.96 µM); in the test with Staphylococcus aureus [3], 1 µg/mL (≈ 1.49 µM); against Staphylococcus aureus [4] it was 1 µg/mL (≈ 1.49 µM); in test [5], 1 µg/mL (≈ 1.49 µM). Further, in the test with Corynebacterium xerosis, it took 0.016 µg/mL (≈ 0.0238 µM) to inhibit growth (MIC).
Consider `CC(=O)O[C@H]1C[C@@]2(C)[C@@H](C[C@@H](O)[C@H]3[C@@]4(C)CC[C@@H](O)[C@@H](C)[C@@H]4CC[C@@]32C)/C1=C(\CCC=C(C)C)C(=O)O` [FUSIDIC ACID], for which the MIC is 0.063 µg/mL (≈ 0.122 µM) against Staphylococcus aureus [6]; < 0.063 µg/mL against Staphylococcus aureus [1]; 0.063 µg/mL (≈ 0.122 µM) in the test on Staphylococcus aureus [2]; < 0.063 µg/mL in the test with Staphylococcus aureus [3]; < 0.063 µg/mL in the test with Staphylococcus aureus [4]; 0.063 µg/mL (≈ 0.122 µM) in test [5]. In the test with Corynebacterium xerosis, this molecule returned an MIC of 0.016 µg/mL (≈ 0.031 µM).
As for `CC(=O)O[C@H]1C[C@@]2(C)[C@@H](C[C@@H](O)[C@H]3[C@@]4(C)CC[C@@H](O)[C@@H](C)C4CC[C@@]32C)/C1=C(\CCCCc1ccc(C2(C(F)(F)F)N=N2)cc1)C(=O)O` (stereo partly specified), the MIC against Staphylococcus aureus [1] worked out at 1 µg/mL (≈ 1.48 µM); in the test with Staphylococcus aureus [2], 2 µg/mL (≈ 2.96 µM); against Staphylococcus aureus [3], 1 µg/mL (≈ 1.48 µM); against Staphylococcus aureus [4], 1 µg/mL (≈ 1.48 µM); in test [5], 1 µg/mL (≈ 1.48 µM); against Corynebacterium xerosis, 0.063 µg/mL (≈ 0.0934 µM).
